The term melting point denotes the temperature, or range, at which the solid turns liquid. With `NNS(=O)(=O)c1ccc(Br)cc1`, the melting point was 225 to 227 °C.
The figure for `Nc1cc(F)ccc1Sc1ncn[nH]1` is 180 to 182 °C.
For the molecule `CC(C)CNCC(=O)O`, the melting point is 198 to 200 °C.
The value for `N#Cc1cc2ccccn2c1` was 68 to 70 °C; that for `CCOC(=O)c1sc(N)c(C(=O)OC(C)(C)C)c1C` was 90 to 92 °C.
The value for `O=Cc1ccc(OCc2ccncc2)cc1` was 112 to 114 °C.
The figure for `O=Cc1c[nH]nc1-c1ccc(Cl)cc1` is 139 to 141 °C; for `Cn1c(C2CC2)nc2cc(N)ccc21` it is 99 to 101 °C; for `CCOc1ccc(S(=O)(=O)NC(=O)c2ccccc2)cc1` it is 85 to 87 °C.
Molecule `O=Cc1ccc(Oc2cnccn2)cc1` yielded a melting point of 79 to 81 °C.
The value for `CN(CC(=O)O)c1ncnc2nc[nH]c12` was 237 to 239 °C; that for `Cn1c(C=O)nc2c1c(=O)[nH]c(=O)n2C` was 284 to 286 °C.
The value for `Cc1ccc(S(=O)(=O)N2CCCCC2C(=O)O)cc1` (configuration not stated) was 100 to 102 °C; that for `Cc1ccc(-c2ccc(C(=O)O)s2)o1` was 197 to 199 °C.
The figure for `O=C(O)CCCNC(=O)NC1CCCCC1` is 153 to 155 °C; for `COCCCOc1cccc(C(=O)O)c1` it is 81 to 83 °C.
On to `O=C(NCc1ccccc1F)c1ccc(-n2ccnc2S)cc1`, for which the melting point is 211 to 213 °C.
The figure for `Nc1ncn(-c2ccccc2)n1` is 146 to 148 °C; for `OCc1noc(-c2cccc(Cl)c2)n1` it is 103 to 105 °C; for `CCOC(=O)c1oc2c(c1C)C(=O)CCC2` it is 104 to 106 °C.
The value for `O=C(O)CSc1nnc(-c2ccco2)o1` was 152 to 155 °C; that for `COc1cc(CNC(=O)CCl)cc(OC)c1OC` was 106 to 108 °C; that for `COc1ccc(S(=O)(=O)NC2CC2)cc1N` was 119 to 121 °C.
The value for `CC(C)(C)OC(=O)N1CC2CNCC2C1` (configuration not stated) was 29 to 31 °C; that for `Cc1ccc(-c2noc(N)n2)cc1` was 214 to 216 °C; that for `NC(=O)[C@H]1CCCC[C@H]1C(=O)O` was 169 to 171 °C.
In turn, `Nc1nnc(CC2CCCCC2)s1` gave a melting point of 250 to 252 °C.
The value for `CC(C)(C)NC(=O)CCl` was 75 to 77 °C; that for `O=C(O)C1Cc2ccccc2S1` (configuration not stated) was 107 to 109 °C; that for `Cc1ccc(NC(N)=O)cc1F` was 190 to 192 °C.
The figure for `Clc1noc(-c2ccco2)n1` is 73 to 75 °C; for `Cc1ncc(-c2ccc(N)cc2)o1` it is 126 to 128 °C.
Molecule `O=C1NC(=O)C(c2cc(Br)ccc2F)N1` (configuration not stated) registered a melting point of 194 to 196 °C.
The figure for `O/N=C(/Cc1nc2ccccc2[nH]1)c1cccs1` is 207 to 209 °C.
The figure for `O=C(c1ccccc1)c1nccs1` is 40 to 42 °C; for `Nc1ccc2c(C(=O)O)c[nH]c2c1` it is 193 to 195 °C.
The value for `CC(NC(=O)CCC(=O)O)C(=O)c1ccc(Br)cc1` (configuration not stated) was 136 to 138 °C.
Consider `c1c[nH]c(C2CCCN2)c1` (configuration not stated), for which the melting point lay in the range of 75 to 77 °C.
The value for `OCc1nc2cc(Cl)ccc2s1` was 113 to 115 °C; that for `CC(=O)c1ccc(N)nc1` was 107 to 109 °C.
The value for `ClCc1cc(Cl)cc2c1OC(c1ccccc1)OC2` (configuration not stated) was 111 to 113 °C; that for `COC(=O)c1cc(S(=O)(=O)Cl)ccc1O` was 81 to 83 °C.
The figure for `CC(N)c1nn[nH]n1` (configuration not stated) is 263 to 265 °C; for `ClCc1cnoc1-c1ccc(Cl)cc1` it is 78 to 80 °C; for `O=C(CCn1ccnc1)NC1CCC(C(=O)O)CC1` (configuration not stated) it is 229 to 231 °C.
In turn, `CNS(=O)(=O)c1ccccc1N` gave a melting point of 53 to 55 °C.
The value for `O=C(O)c1ccc(-c2ccc3c(c2)OCCO3)s1` was 204 to 206 °C; that for `O=C(O)c1c[nH]c2ccc(F)cc12` was 225 to 227 °C.
Turning to `N#Cc1cccc(-n2ccnc2)n1`, the melting point lay in the range of 97 to 99 °C.
The figure for `Nc1nc(-c2ccc3ccccc3n2)n[nH]1` is 297 to 299 °C.
The value for `NC(C(=O)O)c1ccc(Cl)cc1Cl` (configuration not stated) was 215 to 217 °C; that for `NC1(c2nc(C(=O)O)c[nH]2)CCC1` was 273 to 275 °C.
The value for `COc1ccc(-c2[nH]c3ccccc3c2CCC(=O)O)c(OC)c1` was 167 to 169 °C; that for `COC(=O)c1cc2c(Br)ccc(F)c2[nH]1` was 189 to 191 °C; that for `O=C(O)CCCOc1ccccc1F` was 76 to 78 °C.
Consider `Clc1nc(-c2cccnc2)nc2ccccc12`, for which the melting point fell in the range of 180 to 182 °C.
The value for `Brc1cnn(-c2cccnc2)c1` was 126 to 128 °C; that for `CC(C)C(Oc1ccccc1C#N)C(=O)O` (configuration not stated) was 67 to 69 °C.
`NC1(C(=O)O)CCCSC1` (configuration not stated) displayed a melting point of 208 to 210 °C.
The value for `Cc1cc(C(=O)O)nn1C(C)(C)C` was 143 to 145 °C; that for `CC(=O)c1csc(-c2csc(C)n2)c1` was 125 to 127 °C; that for `Nc1cc(CC2CCCCC2)no1` was 106 to 108 °C.
The figure for `O=C(O)c1ccc(OCC(F)(F)F)nn1` is 143 to 145 °C; for `COC(=O)c1cc(Cl)ccn1` it is 55 to 57 °C.
The figure for `Cc1c(-c2ccccc2)nc2ccccc2c1C(=O)O` is 235 to 237 °C; for `CC(C)NS(=O)(=O)c1ccccc1CN` it is 79 to 81 °C.
Consider `Fc1cccc(F)c1-n1c(S)nc2ccccc21`, for which the melting point fell in the range of 255 to 257 °C.
The value for `O=[N+]([O-])c1cnc(Br)c(Br)c1` was 76 to 78 °C; that for `N#CCN1CCN(Cc2ccccc2)CC1` was 49 to 51 °C.
The figure for `OCc1ccn(-c2ccccc2)n1` is 49 to 51 °C; for `COc1ncc(Cl)c(Cl)n1` it is 43 to 45 °C; for `CCOC(=O)c1oc2c(Cl)cccc2c1C` it is 63 to 65 °C.
The value for `Cc1cccc(OC(C)C(=O)O)c1` (configuration not stated) was 85 to 87 °C.
Molecule `COc1cc(C(=O)O)cc(OC)c1OCC(N)=O` registered a melting point of 249 to 253 °C.
For `NNC(=O)NCC1CCCO1` (configuration not stated), the melting point is 79 to 81 °C.
The value for `O=C(O)c1cc(Cl)cc(S(=O)(=O)Cl)c1F` was 162 to 164 °C; that for `O=C(O)C1CCc2cn[nH]c2C1` (configuration not stated) was 234 to 236 °C.
The value for `Cc1nc2ccccc2c(=O)n1CC(=O)O` was 239 to 241 °C.
The figure for `O=C(O)C1CCN(S(=O)(=O)c2ccc(Br)s2)CC1` is 166 to 168 °C.
`COc1ccccc1CCNC(=O)CCl`: the melting point lay within 78 to 80 °C.
For the molecule `Nc1c(C(=O)N2CCOCC2)oc2ccccc12`, the melting point lay within 123 to 125 °C.
The figure for `Cc1ccc2[nH]c(C(=O)O)cc2c1` is 218 to 220 °C; for `Cc1cc(/C=C(\C#N)C(=O)O)c(C)n1CCC(C)C` it is 229 to 231 °C.
The figure for `O=C(NC1CC1)c1cccc(O)c1` is 157 to 159 °C; for `CC1=NN(c2ccc(C(=O)O)cc2)CC1` it is 261 to 263 °C; for `CC(C)(C)c1nn(-c2ccccc2Cl)cc1C=O` it is 111 to 113 °C.
The figure for `O=C(Nc1ccc(-n2cccn2)c(F)c1)OCC(F)(F)F` is 156 to 158 °C.
Take `O=C(O)c1ccc(Oc2ccc(F)cc2[N+](=O)[O-])c(Cl)c1`: the melting point is 155 to 157 °C.
In the case of `O=C(O)C(NC1CC1)c1ccc(O)cc1` (configuration not stated), the melting point fell in the range of 210 to 212 °C.
The figure for `Nc1noc(COc2ccc(F)cc2)n1` is 154 to 156 °C.
The value for `CCc1c(C)nn(-c2cccc(C(=O)O)c2)c1C` was 149 to 151 °C; that for `Cc1ccc(F)c(N2CCCC(Br)C2=O)c1` (configuration not stated) was 74 to 76 °C; that for `NCCCc1n[nH]c(N)c1-c1nc2ccccc2s1` was 313 to 315 °C.
The figure for `CCOc1ccc(Br)cc1S(=O)(=O)NC` is 107 to 109 °C; for `O=C(O)c1cccc(N2CC=CC2)c1` it is 193 to 195 °C; for `Nc1cccc(Cn2cnc3ccccc32)c1` it is 168 to 170 °C.
Molecule `O=C(O)C1CC1c1ccc2c(c1)OCCO2` (configuration not stated) came in with a melting point of 160 to 162 °C.
Consider `C#CCN1CCCCC1C(=O)O` (configuration not stated), for which the melting point is 177 to 179 °C.
The value for `NCC(O)c1cccs1` (configuration not stated) was 81 to 83 °C; that for `NNC(=O)c1ccc(-n2cnnn2)cc1` was 228 to 230 °C; that for `NC(=O)CC(NS(=O)(=O)c1ccccc1F)C(=O)O` (configuration not stated) was 165 to 167 °C.
The value for `CCn1ccnc(N)c1=O` was 119 to 121 °C; that for `CSCCC(NC(=O)COc1ccccc1)C(=O)O` (configuration not stated) was 122 to 130 °C.
The value for `CC(C)c1cc(C(=O)O)n(C)n1` was 158 to 160 °C; that for `O=C1COc2ccc(Cl)cc21` was 115 to 117 °C.
In turn, `CC(C)(C)OC(=O)Nc1ccc(C(=O)O)c(O)c1` came in with a melting point of 158 to 160 °C.
The figure for `O=C(O)COc1ccc(Nc2ccccc2)cc1` is 138 to 142 °C; for `COc1ccc(Nc2nnc(S)s2)cc1` it is 184 to 186 °C; for `CCn1cc(Br)cc1C(=O)O` it is 148 to 150 °C.
In turn, `O=C(O)c1ccc(NS(=O)(=O)c2ccc(Br)cc2)cc1` yielded a melting point of 267 to 269 °C.
The value for `Cn1ccc2c1C(=O)NCC2` was 71 to 73 °C.
The molecule `O=C(O)Cc1ccc(S(=O)(=O)CC(F)(F)F)cc1` registered a melting point of 142 to 144 °C.
The figure for `CC1CC(N)C(=O)N1c1ccccc1` (configuration not stated) is 77 to 79 °C; for `CCCCc1ccc(CC(=O)O)cc1` it is 78 to 80 °C.
Consider `CC(C)(C)OC(=O)NC1CC1`, for which the melting point was in the range of 62 to 64 °C.
The figure for `O=C1CCc2cc(F)c([N+](=O)[O-])cc2N1` is 154 to 156 °C.
Consider `Cc1[nH]c(=O)sc1S(=O)(=O)N1CCCC1C(=O)O` (configuration not stated), for which the melting point was in the range of 247 to 249 °C.
`COc1cc(-c2noc(CCl)n2)ccc1C` came in with a melting point of 73 to 75 °C.
The value for `Cc1nc(-c2ccc(S(N)(=O)=O)cc2)co1` was 245 to 247 °C; that for `COc1cc(C(=O)Cc2nc3ccccc3n2C(F)F)cc(OC)c1OC` was 112 to 114 °C; that for `CC(O)CNS(=O)(=O)c1ccc(C(=O)O)cc1` (configuration not stated) was 208 to 210 °C.
The figure for `CC(C)(C)OC(=O)N1C2CCC1CC(CC(=O)O)C2` (configuration not stated) is 104 to 106 °C.

(Values after a melting point compilation (Tetko et al.).)
